# Experimental data reported in PMC2196289 (The Journal of Experimental Medicine, 1997).
# Target: T1, mouse LXA4R (lipoxin A4 receptor) (Mus musculus, UniProt O08790)
# T1 sequence (O08790 1-351): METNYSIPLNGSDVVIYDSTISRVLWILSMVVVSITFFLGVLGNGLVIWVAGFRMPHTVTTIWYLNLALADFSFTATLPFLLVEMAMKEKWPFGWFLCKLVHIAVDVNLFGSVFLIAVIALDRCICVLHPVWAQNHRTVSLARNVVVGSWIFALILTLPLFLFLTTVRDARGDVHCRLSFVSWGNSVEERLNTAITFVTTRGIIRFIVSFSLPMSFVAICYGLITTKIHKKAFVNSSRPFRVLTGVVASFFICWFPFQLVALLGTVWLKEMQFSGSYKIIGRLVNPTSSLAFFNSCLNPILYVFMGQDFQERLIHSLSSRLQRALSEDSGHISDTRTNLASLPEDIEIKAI
# Assay: [3H]LXA4 radioligand binding
# Assay type: cell-based
compound,measurement,value
"CCCCC[C@H](O)/C=C/C=C\C=C\C=C\[C@@H](O)[C@@H](O)CCCC(=O)O [LXA4, 5(S),6(R),15(S)-trihydroxy7,9,13-trans-11-cis-eicosatetraenoic acid]",Kd,1.5 ± 0.6 nM
